# Reference: patent publication US7081349B1 (The General Hospital Corporation, priority 1994, dated 2006)
# Read-outs that look alike come from different tables or passages of the source.
# Key:
# [1] = target: T1, sheep high-affinity melatonin 1a receptor (Ovis aries, UniProt P48040); test: 125I-melatonin saturation and competition binding, whole COS-7 cells transfected with sheep receptor cDNA
# T1 construct: expressed in transfected cells; host or cells: COS-7 cells, transient, pcDNAI, DEAE-dextran
# Source text: (§1) Data shown are representative of three experiments. […] The data shown are representative of at least three experiments.
# For ligand binding studies, the sheep receptor cDNA (SEQ ID NO:3) in pcDNAI was introduced into COS-7 cells using the DEAE-dextran method (Cullen, B. R. Methods Enzymol. (1987) 152:684-704). Approximately two to three days after transfection, cell culture medium was removed, the cultures dishes were washed with PBS, and the cells were harvested.
# The cells were then pelleted (2500 rpm; 10 min, 4° C.) and stored at −80° C. Whole cell binding studies were performed by thawing the cells and resuspending them in binding buffer (50 mM Tris-HCl, pH 7.4, with 5 mM MgCl2) at a concentration of 200-500 μg protein/ml. The cell suspension was incubated with ^125I-Mel with or without drugs in a total reaction volume of 0.2 ml binding buffer; the suspension as incubated in a shaker bath for 1.5 hr at 25° C. All determinations were done in either duplicate or triplicate. Protein measurements were performed using the Pierce BCA Protein Assay. Binding data were analyzed by computer using the LIGAND Program of Munson and Rodbard (1980).
# [2] = target: T2, Xenopus high-affinity melatonin receptor (Xenopus laevis, UniProt P49219); test: 125I-melatonin saturation and competition binding, whole COS-7 cells transiently expressing Xenopus receptor cDNA; parameters: expressed in transfected cells; host or cells: COS-7 cells, transient, pcDNAI
# T2 sequence (P49219 1-420): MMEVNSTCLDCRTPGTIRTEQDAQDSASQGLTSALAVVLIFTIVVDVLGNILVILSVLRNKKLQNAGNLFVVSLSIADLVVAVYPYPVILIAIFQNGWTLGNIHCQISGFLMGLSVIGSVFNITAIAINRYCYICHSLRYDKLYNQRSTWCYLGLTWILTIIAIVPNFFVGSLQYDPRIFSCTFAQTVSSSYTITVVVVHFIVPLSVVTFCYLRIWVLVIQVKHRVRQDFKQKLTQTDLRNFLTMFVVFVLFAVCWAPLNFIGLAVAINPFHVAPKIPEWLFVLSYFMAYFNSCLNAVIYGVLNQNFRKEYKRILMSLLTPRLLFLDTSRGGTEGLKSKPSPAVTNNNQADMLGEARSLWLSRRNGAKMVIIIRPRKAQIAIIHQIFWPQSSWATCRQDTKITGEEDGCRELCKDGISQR
# Experimental: Three days after transfection, medium was removed, the culture dishes were washed with PBS, and the cells were harvested. The cells were then pelleted (2500 rpm; 10 min, 4° C.) and stored at −80° C. Whole cell binding studies were performed by thawing the cells and resuspending them in binding buffer (50 mM Tris-HCl, pH 7.4, with 5 mM MgCl2) at a concentration of 456 μg protein 1 ml. […] Protein determinations were performed using the Pierce BCA Protein Assay (The Pierce Chemical Co., Rockford, Ill.). Binding data were analyzed by computer using the LIGAND Program of Munson and Rodbard ((1980) supra).
# (§2) The Bmax value using the whole cell binding assay was 67±7 fmol/mg of protein.
# human Mel-1b receptor = target: T3, human Mel-1b receptor (Homo sapiens, UniProt P49286); test: 125I-Mel saturation and competition binding, membranes of COS-1 cells transfected with human Mel-1b receptor cDNA; conditions: for Ki: 200 pM 125I-Mel, mean ± SE of 3-5 experiments; for Ratio (Mel-1a/Mel-1b): ratio of Ki values; for inhibition of specific 125I-Mel binding: micromolar concentrations, human Mel-1b
# T3 construct: expressed in transfected cells; host or cells: COS-1 cells, transient, pcDNA3; crude membrane homogenates
# T3 sequence (P49286 1-362): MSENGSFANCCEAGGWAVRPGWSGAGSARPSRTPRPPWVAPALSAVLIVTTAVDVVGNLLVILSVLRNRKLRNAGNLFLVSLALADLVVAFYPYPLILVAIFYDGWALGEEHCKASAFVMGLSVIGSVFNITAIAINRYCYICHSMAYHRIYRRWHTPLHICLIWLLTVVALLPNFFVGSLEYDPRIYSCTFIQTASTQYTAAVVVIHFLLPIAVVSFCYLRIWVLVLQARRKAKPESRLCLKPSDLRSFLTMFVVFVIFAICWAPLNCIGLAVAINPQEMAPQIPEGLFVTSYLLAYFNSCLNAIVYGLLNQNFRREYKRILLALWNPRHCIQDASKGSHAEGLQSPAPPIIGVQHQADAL
# Experimental: Inset: Scatchard plot of saturation data. […] Data shown are representative of five experiments.
# (§3) The data shown are mean values of three to five experiments for each drug.
# Binding and pharmacological properties of the human Mel-1b receptor were examined by transiently expressing the receptor cDNA in COS-1 cells.
# (§4) Expression studies were performed as follows. COS-1 and NIH 3T3 cells were grown as monolayers in Dulbeccols modified Eagle's medium (DMEM) supplemented with 10% fetal calf serum, penicillin (50 U/ml), and streptomycin (50 μg/ml), in 5% CO2 at 37° C. […] Three days after transfection, medium was removed, and the dishes were washed with PBS. The cells were harvested in Hank's balanced salt solution and centrifuged (1400×g; 10 min, 4° C.). The resultant pellets were stored at −80° C. Crude membrane homogenates were prepared by thawing the pellets on ice and resuspending them in TME buffer (pH 7.4) consisting of 50 mM Tris base, 12.5 mM MgCl2, 1 mM EDTA, and supplemented with 10 μg/ml aprotinin and leupeptin, and 100 μM phenylmethylsulfonylfluoride. The cells were then homogenized using a dounce homogenizer and centrifuged (45,000×g; 15 min at 4° C.). The resulting pellet was resuspended with a dounce homogenizer in TME and frozen at […] in aliquots.
# (§5) Incubations were initiated by the addition of the membrane preparation and were conducted at 37° C. for 60 min. […] All determinations were done in either duplicate or triplicate.
# (§6) Protein measurements were performed by the method of Bradford (Bradford, M. M. (1976) Anal. Biochem. 72, 248-254), using bovine serum albumin as the standard.
# (§7) For comparison, binding and pharmacology of COS-1 cells transiently expressing the human Mel-1a receptor were assessed in parallel.
# human Mel-1a receptor = target: T4, human Mel-1a receptor (Homo sapiens, UniProt P48039); test: 125I-Mel saturation and competition binding, membranes of COS-1 cells transfected with human Mel-1a receptor cDNA; conditions: 100 pM 125I-Mel, mean ± SE of 3-5 experiments
# T4 construct: expressed in transfected cells; host or cells: COS-1 cells, transient, pcDNA3; crude membrane homogenates
# Experimental: as §3, §4, §5, §6, §7
# [3] = target: T5, human high-affinity melatonin 1a receptor (Homo sapiens, UniProt P48039); test: 125I-melatonin saturation and competition binding, COS-7 cells transfected with complete human Mel-1a receptor cDNA; conditions: 100 pM 125I-Mel, one-site model
# T5 construct: expressed in transfected cells; host or cells: COS-7 cells, transient, pcDNAI
# Source text: as §1
# human SCN = conditions: quantitative 125I-Mel autoradiography, Reppert et al. 1988; cited from earlier work
# [4] = system: mock-transfected COS-7 cells; test: 125I-melatonin binding in mock-transfected COS-7 cells
# Source text: as §2
# sheep Mel-1a receptor = target: T6, sheep Mel-1a receptor (Ovis aries, UniProt P48040); test: Inhibition of forskolin-stimulated cAMP accumulation in NIH 3T3 cells stably transfected with sheep receptor cDNA; type: cell-based; conditions: for effect of pertussis toxin pretreatment on melatonin inhibition of forskolin-stimulated cAMP: PTX 100 ng/ml, 18 hours, 1 μM melatonin, 10 μM forskolin
# T6 construct: expressed in transfected cells
# Experimental: The 100% value is the mean cAMP value induced with 10 μM forskolin. […] Cells were preincubated with either vehicle or pertussis toxin for 18 hours (PTX: 100 ng/ml; pertussis toxin was purchased from List, Campbell, Calif.). […] Data are the mean plus standard deviation for 3 plates for each treatment.
# Transformed NIH 3T3 cells were plated on 35 mm dishes. After forty-eight hours, the cells were washed twice with DMEM, and then incubated with or without drugs (diluted in DMEM) for 10 min at 37° C. At the end of treatment, the medium was aspirated and 1 ml of 50 mM acetic acid was added. The cells were collected, transferred to an Eppendorf tube, boiled for 5 min, and centrifuged (13,750 rpm for 15 min). The supernatant was collected and assayed for cAMP. All determinations were done in triplicate. Cyclic AMP levels were determined in duplicate by radioimmunoassay by standard techniques.
# mouse Mel-1a receptor = mouse Mel-1a receptor (Mus musculus, UniProt Q61184, F119L/I348L/K349P/L29M/L347F); conditions: COS-7 cells; comparable to sheep and human Mel-1a receptors
# [5] = target: T2, Xenopus high-affinity melatonin receptor; test: Inhibition of forskolin-stimulated cAMP accumulation in CHO cells stably transfected with Xenopus receptor cDNA; type: cell-based; parameters: expressed in transfected cells
# Experimental: The 100% value is the mean cAMP value induced with 10 μM forskolin.
# Transformed CHO cells were plated on 35 mm culture dishes. After 48 hours, the cells were washed twice with Ham's F-12 (Life Technologies, Bethesda, Md.). […] Following treatment, the medium was aspirated and 1 ml of 50 mM acetic acid was added to the culture dish. The cells were collected, transferred to an Eppendorf tube, boiled for 5 min, and centrifuged (13,750 rpm for 15 min). The supernatant was collected and assayed for cAMP. All determinations were performed in triplicate. Cyclic AMP levels were determined in duplicate by radioimmunoassay (New England Nuclear, Boston, Mass.).
# [6] = 100 pM 125I-Mel, COS-7 cells, sheep receptor, one-site model, read-out: Ki, competition for 125I-Mel binding
# [7] = 100 pM 125I-melatonin, COS-7 cells, Xenopus receptor, representative of three experiments, read-out: Ki, competition for 125I-melatonin binding
# T1 sequence (P48040 whole entry): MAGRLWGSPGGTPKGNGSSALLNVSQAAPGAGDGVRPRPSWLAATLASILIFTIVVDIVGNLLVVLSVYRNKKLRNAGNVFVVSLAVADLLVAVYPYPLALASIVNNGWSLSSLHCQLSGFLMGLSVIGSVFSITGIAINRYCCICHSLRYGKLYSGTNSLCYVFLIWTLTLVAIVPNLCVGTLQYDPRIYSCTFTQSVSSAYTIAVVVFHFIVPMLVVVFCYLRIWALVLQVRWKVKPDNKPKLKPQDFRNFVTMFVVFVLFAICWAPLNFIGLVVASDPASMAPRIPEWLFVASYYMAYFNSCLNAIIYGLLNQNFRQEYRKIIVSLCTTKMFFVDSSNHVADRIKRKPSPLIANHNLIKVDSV
# T6 sequence (P48040 whole entry): as above
# T5 sequence (P48039 whole entry): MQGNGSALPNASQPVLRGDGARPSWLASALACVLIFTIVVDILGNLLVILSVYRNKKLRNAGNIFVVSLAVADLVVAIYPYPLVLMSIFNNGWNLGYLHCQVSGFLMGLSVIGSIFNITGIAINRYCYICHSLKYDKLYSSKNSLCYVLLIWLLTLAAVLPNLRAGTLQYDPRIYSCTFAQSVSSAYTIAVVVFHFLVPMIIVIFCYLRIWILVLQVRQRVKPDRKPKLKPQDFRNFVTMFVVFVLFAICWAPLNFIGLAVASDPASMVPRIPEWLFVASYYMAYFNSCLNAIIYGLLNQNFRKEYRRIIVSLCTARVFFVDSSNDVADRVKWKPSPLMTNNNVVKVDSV
# T4 sequence (P48039 whole entry): as above
# Sequence of mouse Mel-1a receptor (Q61184 whole entry L29M/F119L/L347F/I348L/K349P): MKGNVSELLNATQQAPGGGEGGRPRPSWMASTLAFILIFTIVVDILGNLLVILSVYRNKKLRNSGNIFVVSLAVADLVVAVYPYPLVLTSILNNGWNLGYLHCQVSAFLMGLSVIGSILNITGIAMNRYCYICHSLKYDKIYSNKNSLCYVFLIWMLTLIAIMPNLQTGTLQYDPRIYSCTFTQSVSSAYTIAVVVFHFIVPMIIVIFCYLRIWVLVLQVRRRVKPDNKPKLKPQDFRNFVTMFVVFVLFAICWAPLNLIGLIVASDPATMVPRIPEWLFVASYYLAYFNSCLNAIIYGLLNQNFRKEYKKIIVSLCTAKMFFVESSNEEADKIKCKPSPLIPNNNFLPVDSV
molecule,measurement,setting,value
COc1ccc2[nH]c(I)c(CCNC(C)=O)c2c1 [2-iodomelatonin],Ki,[1],0.037 nM
same,Ki,[2],0.11 nM
COc1ccc2[nH]c(-c3ccccc3)c(CCNC(C)=O)c2c1 [2-phenylmelatonin],Ki,human Mel-1b receptor,0.26 ± 0.06 nM
same,Ratio (Mel-1a/Mel-1b),human Mel-1b receptor,0.8
same,Ki,human Mel-1a receptor,0.21 ± 0.06 nM
"NCCc1c[nH]c2ccc(O)cc12 [5-HT, 5-hydroxytryptamine]",Ki,[1]; [6],> 100000 nM
same,Ki,[3],> 100000 nM
same,inhibition of specific 125I-Mel binding,human Mel-1b receptor,did not inhibit
same,Ki,human Mel-1a receptor,> 10000 nM
same,affinity,human SCN,very low affinity
same,Ki,[2]; [7],> 100000 nM
COc1cc2c(CCNC(C)=O)c[nH]c2cc1Cl [6-chloromelatonin],Ki,[1]; [6],0.25 nM
same,affinity,human SCN,high affinity
same,Ki,[2]; [7],3 nM
COc1cc2c(CCNC(C)=O)c[nH]c2cc1O [6-hydroxymelatonin],Ki,[1]; [6],3 nM
same,Ki,[3],2 nM
same,Ki,[2]; [7],20 nM
"CC(=O)NCCc1c[nH]c2ccc(O)cc12 [NAS, N-acetyl-5-hydroxytryptamine]",Ki,[1]; [6],140 nM
same,Ki,[3],170 nM
same,Ki,human Mel-1b receptor,595 ± 127 nM
same,Ratio (Mel-1a/Mel-1b),human Mel-1b receptor,1.6
same,Ki,human Mel-1a receptor,986 ± 137 nM
same,Ki,[2]; [7],2000 nM
"COc1ccc2[nH]c(I)c(CCNC(C)=O)c2c1 [^125I-melatonin, 2-[^125I]-iodomelatonin]",Ki,"[1]; FIG. 14a inset, COS-7 cells, sheep receptor, representative experiment, read-out: Ki value for the sheep receptor from Scatchard plot of saturation data",0.036 nM
same,Kd,"[2]; saturation 5 to 1280 pM, COS-7 cells, Xenopus receptor, n=3 experiments, read-out: Kd of 125I-melatonin (Scatchard analysis)",0.063 nM
"COc1ccc2[nH]c([125I])c(CCNC(C)=O)c2c1 [^125I-melatonin, 2-[^125I]-iodomelatonin]",specific binding of 125I-melatonin,[4],No specific binding
COc1ccc2[nH]cc(CCNC(C)=O)c2c1 [melatonin],inhibition of forskolin-stimulated cAMP accumulation in vector-only cells,"sheep Mel-1a receptor; melatonin 1 μM, NIH 3T3 cells with pcDNAI NEO lacking the sheep receptor cDNA",did not inhibit
same,effect on basal cAMP levels,"sheep Mel-1a receptor; stably transfected NIH 3T3 lines, sheep receptor",did not alter basal cAMP levels
same,binding affinity,mouse Mel-1a receptor,high affinity
same,affinity,human SCN,high affinity
same,inhibition at 0.01 µM,"[5]; CHO, read-out: maximal inhibition of the mean forskolin-stimulated cAMP concentration",68%
same,IC50,"[5]; manual curve fitting of FIG. 12, 10 μM forskolin, CHO cells, Xenopus receptor",~0.8 nM
same,inhibition of forskolin-stimulated cAMP increase in vector-only cells,"[5]; melatonin 1×10^−6 M, CHO cells stably transfected with vector lacking the Xenopus cDNA",did not inhibit
same,effect on basal cAMP levels,"[5]; melatonin alone 1×10^−6 M, stably transfected CHO cells",not to alter basal cAMP levels
same,Ki,[2]; [7],1.3 nM
COc1cc2nc(N3CCN(C(=O)c4ccco4)CC3)nc(N)c2cc1OC [prazosin],inhibition of specific 125I-Mel binding,human Mel-1b receptor,did not inhibit
Pertussis toxin,effect of pertussis toxin pretreatment on melatonin inhibition of forskolin-stimulated cAMP,sheep Mel-1a receptor,completely abolished
same,effect of pertussis toxin pretreatment on melatonin inhibition of forskolin-stimulated cAMP,sheep Mel-1a receptor; listed as pertussis toxin,blocks
